In general, IC50 refers to the point on the concentration scale where inhibition reaches its midpoint. Usually EC50 stands for the midpoint of the concentration-response curve.

We go through six molecules from ChEMBL document CHEMBL1201862, “PubChem BioAssay data set” (2004).

Assay [1] deals with Alkaline phosphatase, placental type (Homo sapiens, UniProt P05187). The experiment in a line: PLAP enzyme inhibitors, confirmation, biochemical, luminescence (AID 1512). Format: functional.
The target of assay [2] is T1, Alkaline phosphatase, tissue-nonspecific isozyme (Homo sapiens, UniProt P05186).
T1 sequence (P05186 whole entry): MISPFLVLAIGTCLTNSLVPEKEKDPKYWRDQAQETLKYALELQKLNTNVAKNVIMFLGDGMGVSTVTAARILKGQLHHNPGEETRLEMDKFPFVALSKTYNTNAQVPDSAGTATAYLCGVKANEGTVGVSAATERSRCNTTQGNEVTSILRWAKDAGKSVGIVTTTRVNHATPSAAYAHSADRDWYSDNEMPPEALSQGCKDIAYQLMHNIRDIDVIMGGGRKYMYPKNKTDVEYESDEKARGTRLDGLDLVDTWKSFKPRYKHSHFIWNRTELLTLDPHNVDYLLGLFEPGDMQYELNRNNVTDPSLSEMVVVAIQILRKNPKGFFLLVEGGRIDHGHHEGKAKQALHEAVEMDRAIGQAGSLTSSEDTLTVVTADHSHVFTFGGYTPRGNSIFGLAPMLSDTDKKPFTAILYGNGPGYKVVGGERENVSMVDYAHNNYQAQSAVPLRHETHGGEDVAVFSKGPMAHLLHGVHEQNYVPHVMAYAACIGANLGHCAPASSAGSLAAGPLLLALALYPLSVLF
As to the kind of experiment: human TNAP enzyme inhibitors, SAR follow-up, biochemical, luminescent, dose response (AID 1056).

Assay [3] has as its target Glyceraldehyde-3-phosphate dehydrogenase (Homo sapiens, UniProt P04406).
Assay [4] has as its target T2, Short transient receptor potential channel 4 (Mus musculus, UniProt Q9QUQ5).
T2 sequence (Q9QUQ5 whole entry): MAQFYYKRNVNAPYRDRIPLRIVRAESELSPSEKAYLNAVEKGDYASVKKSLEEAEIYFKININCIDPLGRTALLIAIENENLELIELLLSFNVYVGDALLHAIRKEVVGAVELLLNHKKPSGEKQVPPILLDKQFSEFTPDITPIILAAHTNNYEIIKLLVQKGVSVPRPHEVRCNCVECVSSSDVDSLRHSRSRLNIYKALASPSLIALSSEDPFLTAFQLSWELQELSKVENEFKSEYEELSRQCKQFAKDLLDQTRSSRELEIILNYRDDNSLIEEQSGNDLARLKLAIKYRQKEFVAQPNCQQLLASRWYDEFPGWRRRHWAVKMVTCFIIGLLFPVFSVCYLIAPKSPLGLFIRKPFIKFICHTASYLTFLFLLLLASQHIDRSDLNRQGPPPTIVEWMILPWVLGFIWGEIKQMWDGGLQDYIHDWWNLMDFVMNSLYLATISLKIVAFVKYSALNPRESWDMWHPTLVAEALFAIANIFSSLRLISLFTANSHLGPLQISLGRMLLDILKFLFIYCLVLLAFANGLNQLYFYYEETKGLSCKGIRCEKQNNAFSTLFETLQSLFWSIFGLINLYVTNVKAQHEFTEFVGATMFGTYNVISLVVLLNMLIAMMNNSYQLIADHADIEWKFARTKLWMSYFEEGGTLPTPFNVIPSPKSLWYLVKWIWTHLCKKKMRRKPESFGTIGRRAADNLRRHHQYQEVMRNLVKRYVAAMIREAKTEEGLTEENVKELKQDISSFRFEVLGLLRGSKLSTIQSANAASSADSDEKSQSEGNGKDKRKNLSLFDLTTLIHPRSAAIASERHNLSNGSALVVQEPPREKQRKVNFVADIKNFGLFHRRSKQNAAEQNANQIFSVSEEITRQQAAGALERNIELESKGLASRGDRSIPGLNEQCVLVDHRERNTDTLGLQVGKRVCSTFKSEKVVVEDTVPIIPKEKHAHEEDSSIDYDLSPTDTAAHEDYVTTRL
As to the kind of experiment: mouse TRPC4 channel inhibitors, dose response, cell-based, HEK293 TRPC4/mu-opioid, Fluo-4 calcium (AID 434942).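 Further: potency of inhibitors blocking the TRPC4 calcium response.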 Format: functional.

Assay [5] addresses T2, Short transient receptor potential channel 4. As to the kind of experiment: mouse TRPC4 channel activators, dose response, cell-based, HEK293 TRPC4/mu-opioid, Fluo-4 calcium (AID 434937). Format: functional.
Assay [6] is described as follows: cells.
Assay [7] in a line: inhibitors of intracellular T. cruzi replication, confirmation, NIH3T3 host cells, beta-gal luminescence (AID 2044).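 Further: intracellular parasites grown in NIH/3T3 mouse fibroblasts as host cells; luminescent beta-galactosidase reporter signal from transgenic T. cruzi replicating inside host cells; inhibitors lower the luminescence signal.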 Format: functional, cell-based.
The nature of assay [8]: cytotoxicity toward NIH3T3 fibroblasts, dose response, counter-screen, cell-based, ATP luminescence, mouse fibroblasts (AID 2010).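 Further: cells exposed to compound for about 90 hours before reading.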 Format: functional.

The source made the active and inactive calls. Bounds are passed on as bounds.

Chain of Glyceraldehyde-3-phosphate dehydrogenase (P04406 whole entry): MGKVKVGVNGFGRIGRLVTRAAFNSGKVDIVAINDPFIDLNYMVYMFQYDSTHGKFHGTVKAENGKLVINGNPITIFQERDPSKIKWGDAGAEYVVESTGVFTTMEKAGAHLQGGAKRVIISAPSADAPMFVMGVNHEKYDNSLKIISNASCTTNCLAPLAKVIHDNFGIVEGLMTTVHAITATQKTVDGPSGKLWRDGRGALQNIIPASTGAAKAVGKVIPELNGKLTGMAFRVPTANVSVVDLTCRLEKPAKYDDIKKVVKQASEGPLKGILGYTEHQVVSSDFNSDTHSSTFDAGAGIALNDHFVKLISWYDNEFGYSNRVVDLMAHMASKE
Chain of Alkaline phosphatase, placental type (P05187 whole entry): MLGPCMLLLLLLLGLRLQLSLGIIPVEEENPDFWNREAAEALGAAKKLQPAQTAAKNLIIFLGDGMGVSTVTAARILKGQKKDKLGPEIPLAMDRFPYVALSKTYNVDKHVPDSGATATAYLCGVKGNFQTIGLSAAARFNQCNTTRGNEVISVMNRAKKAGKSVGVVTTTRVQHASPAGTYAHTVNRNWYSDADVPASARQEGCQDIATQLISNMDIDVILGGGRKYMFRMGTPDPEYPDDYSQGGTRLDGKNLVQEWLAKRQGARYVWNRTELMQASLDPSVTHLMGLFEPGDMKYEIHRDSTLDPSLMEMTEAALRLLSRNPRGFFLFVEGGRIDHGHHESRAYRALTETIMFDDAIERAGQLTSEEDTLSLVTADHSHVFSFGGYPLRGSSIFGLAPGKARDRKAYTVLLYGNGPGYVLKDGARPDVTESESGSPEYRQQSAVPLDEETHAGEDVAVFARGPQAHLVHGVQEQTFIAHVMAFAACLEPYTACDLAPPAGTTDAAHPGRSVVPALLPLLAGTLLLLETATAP

In the case of `CC1(C)CC(=O)c2c(-c3ccc(Cl)cc3)n[nH]c2C1`, the IC50 was > 100 µM (inactive) in assay [1], 5.02 µM (active) in assay [2] and > 100 µM (not active) in assay [3].

Consider `Nc1nnc(-c2ccc(Cl)cc2)[nH]1`, for which the IC50 in assay [1] was > 100 µM (inactive); in assay [2], 24.5 µM (active); in assay [3] it was > 100 µM (not active).

For `Cc1ccccc1C(=O)Nc1c(C(=O)N(CCN(C)C)Cc2ccco2)oc2ccccc12`, the values for the EC50 in assay [4] and in assay [5] were 0.473 µM (active) and 4.22 µM (active), respectively.

Consider `COc1ccccc1/C=C/CN1CCCC(CCC(=O)NCc2ccc(F)c(F)c2)C1` (stereo not drawn), for which the EC50 is 0.043 µM (active) in assay [6], < 0.1 µM (active) in assay [7], 0.168 µM (active) in assay [5] and > 60 µM (not active) in assay [8].

As to `COc1ccc(-c2n[nH]c3c2C(=O)CC(C)(C)C3)cc1`, the IC50 is > 100 µM (inactive) in assay [1], 3.57 µM (active) in assay [2] and > 100 µM (not active) in assay [3].

Regarding `Cn1ncc2c1ncn1c(-c3ccc(Cl)cc3Cl)nnc21`, the IC50 in assay [1] was > 100 µM (inactive); in assay [2], > 100 µM (inactive); in assay [3], > 100 µM (not active).
